Test results taken from patent US6440440B1, “Biocidal benzylbiphenyl derivatives” (priority 1998, dated 2002).

How the values were obtained:
Assay type in all cases: cell-based
Sporobolomyces roseus = assay: Screening against yeasts; design: key: 3 = complete inhibition of growth, 2 = growth partially controlled; conditions: test compound concentration 500 μmol
Description: (§1) The stock solutions with the test compounds were pipetted into multiwell plates and mixed with warm tryptose broth agar (2.6%) in order to reach a test compound concentration of 500 μMol. The medium was allowed to cool and subsequently inoculated with the bacteria. Wells were placed in an incubator at 27° C. and a relative humidity of 70%. After sufficient growth of the untreated cultures, the test was evaluated.
(§2) 3: complete inhibition of bacterial growth
(§3) 2: bacterial growth partially controlled
(§4) A number of compounds of formula (I) were also tested in a screening against certain The test conditions are the same as described in biological example C.1. The concentration of the test compound was also 500 μmol, and the scoring system used was also the same.
Sporobolomyces roseus (21)

Pseudomonas aeruginosa = assay: Primary bacteria screening; design: key: score: 3 = complete inhibition of growth, 2 = growth partially controlled; conditions: test compound concentration 500 μMol in tryptose broth agar, 27° C.
Description: as §1, §2, §3

Escherichia coli = assay: Primary bacteria screening; design: key: score: 3 = complete inhibition of growth, 2 = growth partially controlled; conditions: test compound concentration 500 μMol in tryptose broth agar, 27° C.
Description: as §1, §2, §3

Rhodotorula rubra = assay: Screening against yeasts; design: key: 3 = complete inhibition of growth, 2 = growth partially controlled; conditions: test compound concentration 500 μmol
Description: as §1, §2, §3, §4

Debaryomyces hansenii = assay: Screening against yeasts; design: key: 3 = complete inhibition of growth, 2 = growth partially controlled; conditions: test compound concentration 500 μM
Description: as §1, §2, §3, §4
Debaryomyces hansenii (19)

Structure (SMILES) | Test yeast (21) Sporobolomyces roseus (score) (Sporobolomyces roseus) | P. aeruginosa (growth inhibition score) (Pseudomonas aeruginosa) | E. coli (growth inhibition score) (Escherichia coli) | Test yeast (20) Rhodotorula rubra (score) (Rhodotorula rubra) | Test yeast (19) Debaryomyces hansenii (score) (Debaryomyces hansenii)
Cl.Cl.Fc1ccc(-c2ccc(C(c3ccc(F)cc3)C3CCN(C4CCNCC4)CC3)cc2)cc1 (stereo not drawn) [compound 6] | 3 | 3 | 3 | 3 | 3
Cc1ccc(C(c2ccc(-c3ccc(F)cc3)cc2)C2CCN(C3CCNCC3)CC2)cc1.Cl.Cl (stereo not drawn) [compound 9] | 3 | 2 | 3 | 3 | 3
Cl.Fc1ccc(C(c2ccc(-c3ccccc3)cc2)C2CCN(C3CCNCC3)CC2)cc1 (stereo not drawn) [compound 11] | 3 | 3 | 3 | 1 | 3
Br.Br.COc1ccc(C(c2ccc(-c3ccccc3)cc2)C2CCN(C3CCNCC3)CC2)cc1 (stereo not drawn) [compound 12] | 3 | 2 | 3 | 2 | 3
Cl.Cl.Oc1ccc(C(c2ccc(-c3ccccc3)cc2)C2CCN(C3CCNCC3)CC2)cc1 (stereo not drawn) [compound 13] | 3 | 3 | 3 | 1 | 3
NCCCN1CCC(N2CCC(C(c3ccccc3)c3ccc(-c4ccccc4)cc3)CC2)CC1 (stereo not drawn) [compound 16] | 3 | 3 | 3 | 3 | 3
CCN1CCC(N2CCC(C(c3ccccc3)c3ccc(-c4ccccc4)cc3)CC2)CC1.Cl.Cl (stereo not drawn) [compound 18] | 3 | 2 | 1 | 1 | 3
NCCC1CCN(CC=C(c2ccccc2)c2ccc(-c3ccccc3)cc2)CC1.O=C(O)C(=O)O.O=C(O)C(=O)O [compound 25] | 3 | 1 | 3 | 1 | 3
NCC1CCN(CC=C(c2ccccc2)c2ccc(-c3ccccc3)cc2)CC1.O=C(O)C(=O)O.O=C(O)C(=O)O [compound 26] | 3 | 1 | 3 | 2 | 3
NC1CCN(CC=C(c2ccccc2)c2ccc(-c3ccccc3)cc2)CC1.O=C(O)C(=O)O.O=C(O)C(=O)O [compound 27] | 3 | 1 | 3 | 1 | 3
Cl.Cl.NCCC1CCN(CCC(c2ccccc2)c2ccc(-c3ccccc3)cc2)CC1 (stereo not drawn) [compound 29] | 3 | 1 | 3 | 3 | 3
Cl.Cl.NCC1CCN(CCC(c2ccccc2)c2ccc(-c3ccccc3)cc2)CC1 (stereo not drawn) [compound 30] | 3 | 1 | 3 | 1 | 3
Cl.Cl.NC1CCN(CCC(c2ccccc2)c2ccc(-c3ccccc3)cc2)CC1 (stereo not drawn) [compound 31] | 3 | 1 | 3 | 1 | 3
CN(C)CC1CCN(CCC(c2ccccc2)c2ccc(-c3ccccc3)cc2)CC1 (stereo not drawn) [compound 33] | 3 | 1 | 1 | 3 | 3
CN(C)CCNCCC(c1ccccc1)c1ccc(-c2ccccc2)cc1 (stereo not drawn) [compound 39] | 3 | 1 | 3 | 1 | 3
CN(C)CCCN1CCC(C(c2ccccc2)c2ccc(-c3ccccc3)cc2)CC1.Cl.Cl (stereo not drawn) [compound 43] | 3 | 2 | 1 | 2 | 3
Cl.Cl.Cl.c1ccc(-c2ccc(C(c3ccccc3)N3CCN(C4CCNCC4)CC3)cc2)cc1 (stereo not drawn) [compound 46] | 3 | 3 | 1 | 1 | 3
c1ccc(-c2ccc(C(NC3CCN(C4CCNCC4)CC3)c3ccccc3)cc2)cc1 (stereo not drawn) [compound 47] | 3 | 1 | 3 | 3 | 3
Cl.Cl.Cl.NC1CCN(C2CCN(C(c3ccccc3)c3ccc(-c4ccccc4)cc3)CC2)CC1 (stereo not drawn) [compound 49] | 3 | 1 | 3 | 2 | 3
Br.Br.c1ccc(-c2ccc(C(CCNC3CCNCC3)c3ccccc3)cc2)cc1 (stereo not drawn) [compound 50] | 3 | 1 | 3 | 3 | 3
Br.Br.CN(CCC(c1ccccc1)c1ccc(-c2ccccc2)cc1)C1CCNCC1 (stereo not drawn) [compound 51] | 3 | 1 | 3 | 3 | 3
